Measurements published in PubChem BioAssay AID1963980 (Molecular Pharmacology Branch, DTP, NCI, 2024).

System: 475296-252-R-J1-PDC spheroid viability
Test: Anticancer human tumor 475296-252-R-J1-PDC patient-derived rectal carcinoma cell line growth inhibition [PI3K]
Conditions: spheroids with HUVEC and MSC; for IC50: curve of first compound; for viability, T/C: stronger effect = lower value
In short: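 Combination activity was assessed by viability in multicellular tumor spheroids carrying HUVEC and MSC components. Agents were tested with PI3K inhibitors from a Cmax-based top dose (or 10 microM) downward in half-log increments.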

[1] = second compound 0.0316 µM, first compound 0.0316 µM
[2] = second compound 0.0316 µM, first compound 0.1 µM
[3] = second compound 0.1 µM, first compound 0.0316 µM
[4] = second compound 0.1 µM, first compound 0.1 µM
[5] = second compound 0.316 µM, first compound 0.0316 µM
[6] = second compound 0.316 µM, first compound 0.1 µM
[7] = second compound 1 µM, first compound 0.0316 µM
[8] = second compound 1 µM, first compound 0.1 µM
[9] = second compound 3.16 µM, first compound 0.0316 µM
[10] = second compound 3.16 µM, first compound 0.1 µM
[11] = second compound 10 µM, first compound 0.0316 µM
[12] = second compound 10 µM, first compound 0.1 µM
[13] = second compound 0.0316 µM, first compound 0.316 µM
[14] = second compound 0.0316 µM, first compound 1 µM
[15] = second compound 0.0316 µM, first compound 3.16 µM
[16] = second compound 0.0316 µM, first compound 10 µM
[17] = second compound 0.1 µM, first compound 0.316 µM
[18] = second compound 0.1 µM, first compound 1 µM
[19] = second compound 0.1 µM, first compound 3.16 µM
[20] = second compound 0.1 µM, first compound 10 µM
[21] = second compound 0.316 µM, first compound 0.316 µM
[22] = second compound 0.316 µM, first compound 1 µM
[23] = second compound 0.316 µM, first compound 3.16 µM
[24] = second compound 0.316 µM, first compound 10 µM
[25] = second compound 1 µM, first compound 0.316 µM
[26] = second compound 1 µM, first compound 1 µM
[27] = second compound 1 µM, first compound 3.16 µM
[28] = second compound 1 µM, first compound 10 µM
[29] = second compound 3.16 µM, first compound 0.316 µM
[30] = second compound 3.16 µM, first compound 1 µM
[31] = second compound 3.16 µM, first compound 3.16 µM
[32] = second compound 3.16 µM, first compound 10 µM
[33] = second compound 10 µM, first compound 0.316 µM
[34] = second compound 10 µM, first compound 1 µM
[35] = second compound 10 µM, first compound 3.16 µM
[36] = second compound 10 µM, first compound 10 µM
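Note: spheroids exposed to agents for seven days before readout.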

CC(C)n1nc(-c2ccc3oc(N)nc3c2)c2c(N)ncnc21 + Cc1nc(NC(=O)N2CCCC2C(N)=O)sc1-c1ccnc(C(C)(C)C(F)(F)F)c1
IC50 (second compound 0.0316 µM): > 0.1 µM
IC50 (second compound 0.1 µM): > 0.1 µM
IC50 (second compound 0.316 µM): > 0.1 µM
IC50 (second compound 1 µM): > 0.1 µM
IC50 (second compound 3.16 µM): > 0.1 µM
IC50 (second compound 10 µM): > 0.1 µM
viability, T/C (second compound 0.0316 µM, first compound 0.000316 µM): 93.5%
viability, T/C (second compound 0.0316 µM, first compound 0.001 µM): 95.3%
viability, T/C (second compound 0.0316 µM, first compound 0.00316 µM): 93.1%
viability, T/C (second compound 0.0316 µM, first compound 0.01 µM): 88.4%
viability, T/C [1]: 83.9%
viability, T/C [2]: 64.1%
viability, T/C (second compound 0.1 µM, first compound 0.000316 µM): 92.1%
viability, T/C (second compound 0.1 µM, first compound 0.001 µM): 98%
viability, T/C (second compound 0.1 µM, first compound 0.00316 µM): 95.2%
viability, T/C (second compound 0.1 µM, first compound 0.01 µM): 84.5%
viability, T/C [3]: 76.8%
viability, T/C [4]: 62%
viability, T/C (second compound 0.316 µM, first compound 0.000316 µM): 97.1%
viability, T/C (second compound 0.316 µM, first compound 0.001 µM): 95.4%
viability, T/C (second compound 0.316 µM, first compound 0.00316 µM): 85%
viability, T/C (second compound 0.316 µM, first compound 0.01 µM): 92.8%
viability, T/C [5]: 85.9%
viability, T/C [6]: 59.9%
viability, T/C (second compound 1 µM, first compound 0.000316 µM): 89.8%
viability, T/C (second compound 1 µM, first compound 0.001 µM): 106%
viability, T/C (second compound 1 µM, first compound 0.00316 µM): 87.3%
viability, T/C (second compound 1 µM, first compound 0.01 µM): 91.9%
viability, T/C [7]: 70.2%
viability, T/C [8]: 57.1%
viability, T/C (second compound 3.16 µM, first compound 0.000316 µM): 83.4%
viability, T/C (second compound 3.16 µM, first compound 0.001 µM): 86%
viability, T/C (second compound 3.16 µM, first compound 0.00316 µM): 88.4%
viability, T/C (second compound 3.16 µM, first compound 0.01 µM): 77.5%
viability, T/C [9]: 82.3%
viability, T/C [10]: 54.3%
viability, T/C (second compound 10 µM, first compound 0.000316 µM): 91.1%
viability, T/C (second compound 10 µM, first compound 0.001 µM): 85.1%
viability, T/C (second compound 10 µM, first compound 0.00316 µM): 83.8%
viability, T/C (second compound 10 µM, first compound 0.01 µM): 89.2%
viability, T/C [11]: 86.5%
viability, T/C [12]: 54.4%

CC1(C)CCC(CN2CCN(c3ccc(C(=O)NS(=O)(=O)c4ccc(NCC5CCOCC5)c([N+](=O)[O-])c4)c(Oc4cnc5[nH]ccc5c4)c3)CC2)=C(c2ccc(Cl)cc2)C1 + Cc1nc(NC(=O)N2CCCC2C(N)=O)sc1-c1ccnc(C(C)(C)C(F)(F)F)c1
IC50 (second compound 0.0316 µM): > 10 µM
IC50 (second compound 0.1 µM): > 10 µM
IC50 (second compound 0.316 µM): > 10 µM
IC50 (second compound 1 µM): > 10 µM
IC50 (second compound 3.16 µM): > 10 µM
IC50 (second compound 10 µM): > 10 µM
viability, T/C [1]: 107%
viability, T/C [2]: 90.1%
viability, T/C [13]: 95.3%
viability, T/C [14]: 87.2%
viability, T/C [15]: 95.7%
viability, T/C [16]: 62.5%
viability, T/C [3]: 99.3%
viability, T/C [4]: 85.6%
viability, T/C [17]: 98.9%
viability, T/C [18]: 93%
viability, T/C [19]: 94.2%
viability, T/C [20]: 63.5%
viability, T/C [5]: 99.7%
viability, T/C [6]: 97.5%
viability, T/C [21]: 89.9%
viability, T/C [22]: 84.5%
viability, T/C [23]: 84.2%
viability, T/C [24]: 69%
viability, T/C [7]: 90.8%
viability, T/C [8]: 93.2%
viability, T/C [25]: 97.1%
viability, T/C [26]: 93.3%
viability, T/C [27]: 88.3%
viability, T/C [28]: 73.3%
viability, T/C [9]: 83.4%
viability, T/C [10]: 82%
viability, T/C [29]: 95.5%
viability, T/C [30]: 90.5%
viability, T/C [31]: 87.5%
viability, T/C [32]: 63.3%
viability, T/C [11]: 86.5%
viability, T/C [12]: 87.6%
viability, T/C [33]: 89.4%
viability, T/C [34]: 89%
viability, T/C [35]: 87.3%
viability, T/C [36]: 56.7%

CCCS(=O)(=O)Nc1ccc(F)c(C(=O)c2c[nH]c3ncc(-c4ccc(Cl)cc4)cc23)c1F + Cc1nc(NC(=O)N2CCCC2C(N)=O)sc1-c1ccnc(C(C)(C)C(F)(F)F)c1
IC50 (second compound 0.0316 µM): > 10 µM
IC50 (second compound 0.1 µM): > 10 µM
IC50 (second compound 0.316 µM): > 10 µM
IC50 (second compound 1 µM): > 10 µM
IC50 (second compound 3.16 µM): > 10 µM
IC50 (second compound 10 µM): > 10 µM
viability, T/C [1]: 88.8%
viability, T/C [2]: 95.5%
viability, T/C [13]: 92.2%
viability, T/C [14]: 91.5%
viability, T/C [15]: 80.5%
viability, T/C [16]: 94%
viability, T/C [3]: 106%
viability, T/C [4]: 94.6%
viability, T/C [17]: 88%
viability, T/C [18]: 81.2%
viability, T/C [19]: 98.7%
viability, T/C [20]: 100%
viability, T/C [5]: 85%
viability, T/C [6]: 94.8%
viability, T/C [21]: 98.2%
viability, T/C [22]: 92.6%
viability, T/C [23]: 91.1%
viability, T/C [24]: 96.3%
viability, T/C [7]: 83.1%
viability, T/C [8]: 97.3%
viability, T/C [25]: 88.2%
viability, T/C [26]: 89.8%
viability, T/C [27]: 89.3%
viability, T/C [28]: 82%
viability, T/C [9]: 83.6%
viability, T/C [10]: 92.8%
viability, T/C [29]: 87.6%
viability, T/C [30]: 92%
viability, T/C [31]: 89.9%
viability, T/C [32]: 73%
viability, T/C [11]: 80.4%
viability, T/C [12]: 82%
viability, T/C [33]: 82.1%
viability, T/C [34]: 80.4%
viability, T/C [35]: 76.3%
viability, T/C [36]: 66.1%

C[C@@H](NC(=O)c1ncnc(N)c1Cl)c1ncc(C(=O)Nc2cc(C(F)(F)F)c(Cl)cn2)s1 + Cc1nc(NC(=O)N2CCCC2C(N)=O)sc1-c1ccnc(C(C)(C)C(F)(F)F)c1
IC50 (second compound 0.0316 µM): > 10 µM
IC50 (second compound 0.1 µM): > 10 µM
IC50 (second compound 0.316 µM): > 10 µM
IC50 (second compound 1 µM): > 10 µM
IC50 (second compound 3.16 µM): > 10 µM
IC50 (second compound 10 µM): 7.71 µM
viability, T/C [1]: 97.3%
viability, T/C [2]: 82.2%
viability, T/C [13]: 98.4%
viability, T/C [14]: 97.1%
viability, T/C [15]: 104%
viability, T/C [16]: 84.1%
viability, T/C [3]: 88.8%
viability, T/C [4]: 85.3%
viability, T/C [17]: 109%
viability, T/C [18]: 91.7%
viability, T/C [19]: 100%
viability, T/C [20]: 95.4%
viability, T/C [5]: 87.7%
viability, T/C [6]: 90.5%
viability, T/C [21]: 97%
viability, T/C [22]: 98.9%
viability, T/C [23]: 95.6%
viability, T/C [24]: 79.9%
viability, T/C [7]: 82.6%
viability, T/C [8]: 93.7%
viability, T/C [25]: 101%
viability, T/C [26]: 101%
viability, T/C [27]: 84.9%
viability, T/C [28]: 63%
viability, T/C [9]: 86.2%
viability, T/C [10]: 79.4%
viability, T/C [29]: 93.4%
viability, T/C [30]: 75.9%
viability, T/C [31]: 79.6%
viability, T/C [32]: 70.5%
viability, T/C [11]: 86.6%
viability, T/C [12]: 77%
viability, T/C [33]: 79.5%
viability, T/C [34]: 69.1%
viability, T/C [35]: 66.8%
viability, T/C [36]: 45%
